Data from paper PMC6332354 (Molecules, 2015).

Tests used:
[1] = system: human embryonic lung fibroblast (HELF) cells; experiment: In vitro cytotoxicity, MTT test; assay type: cell-based; settings: HELF (WI-38) cells, 48 h incubation
Protocol: In the cytotoxicity experiment, tetrazolium-based colorimetric assay (MTT test) was used to measure the cytotoxic effect of these selected potent compounds on normal cells. Human embryonic lung fibroblast cell line (HELF, WI-38) was purchased from the Cell Resource Center, Chinese Academy of Medical Sciences (Beijing, China). Briefly, cells (5000 per well) were collected and seeded in 96-well plates. After incubation for 24 h, cells were exposed to fresh medium containing various concentrations of test compound at 37 °C. After incubation for 48 h, 20 μL of MTT tetrazolium salt dissolved in phosphate buffered saline (PBS) at a concentration of 5 mg/mL was added to each well and incubated in a CO2 incubator for 4 h. The medium was then aspirated from each well and 150 μL of DMSO was added to dissolve formazan crystals. The absorbance of each well was measured by ELx808 Microplate Reader (BioTek, Winooski, VT, USA) at a test wavelength of 490 nm. TC50, the drug concentration which reduces the cell viability by 50% was calculated by the Logit method.

rat ACC2 = target: T1, rat ACC2 (Rattus norvegicus, UniProt D3ZBE2); experiment: ACC2 in vitro assay (Kinase-Glo Plus luminescence); assay type: biochemical; settings: arithmetic means of three experiments, standard deviation in parentheses
T1 construct: purchased Huawei Pharmaceutical Co. Ltd (Shanghai, China)
Protocol: (§1) To investigate the biological activities of the synthesized compounds, the in vitro inhibitory activities of these compounds against both rat ACC1 and ACC2 were evaluated according to the previous experimental method with some changes. The ACC1 and ACC2 enzymes were supplied by Huawei Pharmaceutical Co. Ltd (Shanghai, China). […] Then, the solution was diluted with buffer solution until it reached the required concentration (1 nM to 10 μM) and 5μL of the dilution was added to a 50 μL reaction mixture containing 30 mM HEPES, pH 7.4, 2 mM MgCl2, 2 mM sodium citrate, 1 mM DTT, 25 μM ATP, 16 mM NaHCO3 and 15 μM acetyl-CoA. All of the enzymatic reactions were conducted at 30 °C for 60 min. The assay was performed using Kinase-Glo Plus luminescence kinase assay kit (Beijing, China), which measures kinase activity by quantifying the amount of ATP remaining in solution following a kinase reaction. The luminescent signal from the assay […] with the amount of kinase activity. The same concentrations of DMSO were tested in parallel and used as background control. The inhibition percentage was expressed as the average value from three independent experiments.

rat ACC1 = target: T2, rat ACC1 (Rattus norvegicus, UniProt P11497); experiment: ACC1 in vitro assay (Kinase-Glo Plus luminescence); assay type: biochemical; settings: arithmetic means of three experiments, standard deviation in parentheses
T2 construct: purchased Huawei Pharmaceutical Co. Ltd (Shanghai, China)
Protocol: as §1

ACC2 = system: ACC2; parameters: method as in PMID 12842871, PMID 25333641; settings: ACC2 from mammalia; read-out: IC50 against ACC2; cited from earlier work
ACC1 = system: ACC1; parameters: method as in PMID 12842871, PMID 25333641; settings: ACC1 from mammalia; read-out: IC50 against ACC1; cited from earlier work

T1 sequence (D3ZBE2 17-2459): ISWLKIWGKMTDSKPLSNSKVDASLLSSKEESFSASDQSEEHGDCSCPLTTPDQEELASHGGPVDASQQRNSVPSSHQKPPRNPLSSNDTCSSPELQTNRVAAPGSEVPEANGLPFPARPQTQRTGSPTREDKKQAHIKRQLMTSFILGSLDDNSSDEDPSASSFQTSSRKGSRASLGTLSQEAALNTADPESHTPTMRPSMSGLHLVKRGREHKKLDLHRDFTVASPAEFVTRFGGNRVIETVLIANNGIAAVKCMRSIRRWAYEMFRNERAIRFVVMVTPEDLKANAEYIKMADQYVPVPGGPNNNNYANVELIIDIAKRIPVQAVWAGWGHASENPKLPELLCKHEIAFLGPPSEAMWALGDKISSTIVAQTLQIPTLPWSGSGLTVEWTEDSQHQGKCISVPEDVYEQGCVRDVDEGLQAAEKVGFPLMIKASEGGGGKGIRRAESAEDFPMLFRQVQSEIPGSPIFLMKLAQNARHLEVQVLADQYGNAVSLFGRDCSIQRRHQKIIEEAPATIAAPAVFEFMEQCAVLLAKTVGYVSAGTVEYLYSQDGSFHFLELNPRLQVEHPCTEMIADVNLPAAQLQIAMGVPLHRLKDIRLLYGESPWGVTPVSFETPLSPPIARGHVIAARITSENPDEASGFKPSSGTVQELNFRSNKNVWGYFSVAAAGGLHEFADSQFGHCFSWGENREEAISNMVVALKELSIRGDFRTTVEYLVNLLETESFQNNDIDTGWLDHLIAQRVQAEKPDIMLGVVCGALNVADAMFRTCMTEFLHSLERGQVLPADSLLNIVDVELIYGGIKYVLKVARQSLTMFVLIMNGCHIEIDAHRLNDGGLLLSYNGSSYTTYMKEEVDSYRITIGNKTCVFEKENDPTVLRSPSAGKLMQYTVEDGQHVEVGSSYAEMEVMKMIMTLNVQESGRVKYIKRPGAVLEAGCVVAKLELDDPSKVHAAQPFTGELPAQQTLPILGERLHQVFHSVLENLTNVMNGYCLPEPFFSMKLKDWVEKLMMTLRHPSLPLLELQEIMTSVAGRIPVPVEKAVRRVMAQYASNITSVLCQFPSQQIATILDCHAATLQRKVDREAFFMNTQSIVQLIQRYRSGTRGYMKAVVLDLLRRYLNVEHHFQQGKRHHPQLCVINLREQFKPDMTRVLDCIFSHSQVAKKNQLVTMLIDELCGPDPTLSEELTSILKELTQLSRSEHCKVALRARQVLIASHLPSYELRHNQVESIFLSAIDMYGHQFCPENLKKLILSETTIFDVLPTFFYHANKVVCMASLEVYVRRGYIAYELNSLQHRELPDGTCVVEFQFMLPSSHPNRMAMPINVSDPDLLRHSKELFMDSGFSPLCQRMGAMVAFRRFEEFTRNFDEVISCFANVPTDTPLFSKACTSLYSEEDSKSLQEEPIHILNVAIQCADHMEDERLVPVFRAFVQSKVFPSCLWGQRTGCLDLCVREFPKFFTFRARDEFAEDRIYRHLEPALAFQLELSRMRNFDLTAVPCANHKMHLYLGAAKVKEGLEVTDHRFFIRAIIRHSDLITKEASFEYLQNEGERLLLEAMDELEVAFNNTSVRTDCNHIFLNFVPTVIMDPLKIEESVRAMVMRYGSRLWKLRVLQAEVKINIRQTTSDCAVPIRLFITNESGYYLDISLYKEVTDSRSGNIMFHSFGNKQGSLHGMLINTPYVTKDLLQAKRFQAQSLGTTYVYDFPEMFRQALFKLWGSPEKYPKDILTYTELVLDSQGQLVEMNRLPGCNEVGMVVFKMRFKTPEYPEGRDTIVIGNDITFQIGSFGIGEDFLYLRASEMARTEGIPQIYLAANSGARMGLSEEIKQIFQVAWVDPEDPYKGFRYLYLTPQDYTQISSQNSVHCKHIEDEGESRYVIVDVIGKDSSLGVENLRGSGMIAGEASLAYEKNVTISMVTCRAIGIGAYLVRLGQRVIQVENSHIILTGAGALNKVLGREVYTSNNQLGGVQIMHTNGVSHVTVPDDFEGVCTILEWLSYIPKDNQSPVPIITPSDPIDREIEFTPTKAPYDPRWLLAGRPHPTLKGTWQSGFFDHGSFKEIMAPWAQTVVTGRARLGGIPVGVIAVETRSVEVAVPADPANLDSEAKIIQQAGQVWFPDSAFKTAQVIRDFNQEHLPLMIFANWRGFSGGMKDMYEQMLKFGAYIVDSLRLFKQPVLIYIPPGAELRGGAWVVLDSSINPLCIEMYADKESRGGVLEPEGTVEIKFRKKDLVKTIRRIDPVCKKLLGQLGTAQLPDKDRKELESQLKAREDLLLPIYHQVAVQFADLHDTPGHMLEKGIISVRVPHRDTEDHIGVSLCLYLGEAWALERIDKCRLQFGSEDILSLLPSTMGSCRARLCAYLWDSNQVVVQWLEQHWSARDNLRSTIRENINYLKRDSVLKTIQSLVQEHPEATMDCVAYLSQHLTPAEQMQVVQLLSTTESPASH

SMILES: COc1ccc(-c2cc(C(=O)N3CCC(N4CCC[C@@H](C(=O)N5CCOCC5)C4)CC3)c3ccccc3n2)cc1 [7a, (R)-(2-(4-Methoxyphenyl)quinolin-4-yl)(3-(morpholine-4-carbonyl)-[1,4′-bipiperidin]-1′-yl)methanone]
- TC50 (concentration which reduces the cell viability by 50%) [1]: >100 µM
- IC50 (rat ACC2): 0.172 µM
- IC50 (rat ACC1): 0.189 µM

SMILES: COc1ccc(-c2cc(C(=O)N3CCC(N4CCC[C@@H](C(=O)N(C)Cc5ccccc5)C4)CC3)c3ccccc3n2)cc1 [7b, (R)-N-Benzyl-1'-(2-(4-methoxyphenyl)quinoline-4-carbonyl)-N-methyl-[1,4'-bipiperidine]-3-carbox-amide]
- TC50 (concentration which reduces the cell viability by 50%) [1]: >100 µM
- IC50 (rat ACC2): 0.36 µM
- IC50 (rat ACC1): 0.75 µM
- melting point: 90 to 92 °C

SMILES: CCN(CC)C(=O)[C@@H]1CCCN(C2CCN(C(=O)c3cc(-c4ccc(OC)cc4)nc4ccccc34)CC2)C1 [7c, (R)-N,N-Diethyl-1'-(2-(4-methoxyphenyl)quinoline-4-carbonyl)-[1,4'-bipiperidine]-3-carboxamide]
- TC50 (concentration which reduces the cell viability by 50%) [1]: >100 µM
- IC50 (rat ACC2): 0.205 µM
- IC50 (rat ACC1): 0.94 µM
- melting point: 101 to 102 °C

SMILES: COc1ccc(-c2cc(C(=O)N3CCC(N4CCC[C@@H](C(=O)N5CCN(C)CC5)C4)CC3)c3ccccc3n2)cc1 [7d, (R)-(2-(4-Methoxyphenyl)quinolin-4-yl)(3-(4-methylpiperazine-1-carbonyl)-[1,4'-bipiperidin]-1'-yl)-methanone]
- TC50 (concentration which reduces the cell viability by 50%) [1]: >100 µM
- IC50 (rat ACC2): 0.294 µM
- IC50 (rat ACC1): 0.62 µM
- melting point: 108 to 110 °C

SMILES: COc1ccc(-c2cc(C(=O)N3CCC(N4CCC[C@@H](C(=O)N5CCCC5)C4)CC3)c3ccccc3n2)cc1 [7e, (R)-(2-(4-Methoxyphenyl)quinolin-4-yl)(3-(pyrrolidine-1-carbonyl)-[1,4'-bipiperidin]-1'-yl)methanone]
- TC50 (concentration which reduces the cell viability by 50%) [1]: >100 µM
- IC50 (rat ACC2): 0.382 µM
- IC50 (rat ACC1): 0.75 µM

SMILES: COc1ccc(-c2cc(C(=O)N3CCC(N4CCC[C@@H](C(=O)N5CCCCC5)C4)CC3)c3ccccc3n2)cc1 [7f, (R)-(2-(4-Methoxyphenyl)quinolin-4-yl)(3-(piperidine-1-carbonyl)-[1,4′-bipiperidin]-1′-yl)methanone]
- IC50 (rat ACC2): 0.92 µM
- IC50 (rat ACC1): > 1 µM
- melting point: 89 to 91 °C

SMILES: O=C(c1cc(-c2ccccc2)nc2ccccc12)N1CCC(N2CCC[C@@H](C(=O)N3CCOCC3)C2)CC1 [7g, (R)-(3-(Morpholino-4-carbonyl)-[1,4'-bipiperidin]-1'-yl)(2-phenylquinolin-4-yl)methanone]
- TC50 (concentration which reduces the cell viability by 50%) [1]: >100 µM
- IC50 (rat ACC2): 0.81 µM
- IC50 (rat ACC1): 0.86 µM
- melting point: 92 to 93 °C

SMILES: O=C(c1cc(-c2ccc(Cl)cc2)nc2ccccc12)N1CCC(N2CCC[C@@H](C(=O)N3CCOCC3)C2)CC1 [7h, (R)-(2-(4-Chlorophenyl)quinolin-4-yl)(3-(morpholine-4-carbonyl)-[1,4'-bipiperidin]-1'-yl)methanone]
- IC50 (rat ACC2): > 1 µM
- IC50 (rat ACC1): > 1 µM
- melting point: 87 to 89 °C

SMILES: O=C(c1cc(-c2ccccc2Cl)nc2ccccc12)N1CCC(N2CCC[C@@H](C(=O)N3CCOCC3)C2)CC1 [7i, (R)-(2-(2-Chlorophenyl)quinolin-4-yl)(3-(morpholine-4-carbonyl)-[1,4'-bipiperidin]-1'-yl)methanone]
- IC50 (rat ACC2): > 1 µM
- IC50 (rat ACC1): > 1 µM

SMILES: COc1ccc(-c2cc(C(=O)N3CCC4(CC3)CC(=O)c3ccccc3O4)c3ccccc3n2)cc1 [12a, 1'-(2-(4-Methoxyphenyl)quinoline-4-carbonyl)spiro[chroman-2,4'-piperidin]-4-one]
- TC50 (concentration which reduces the cell viability by 50%) [1]: >100 µM
- IC50 (rat ACC2): 0.65 µM
- IC50 (rat ACC1): 0.6 µM

SMILES: COc1ccc(-c2cc(C(=O)N3CCC4(CC3)CC(=O)c3ccccc3O4)c3ccccc3n2)cc1OC [12b, 1'-(2-(3,4-Dimethoxyphenyl)quinoline-4-carbonyl)spiro[chroman-2,4'-piperidin]-4-one]
- TC50 (concentration which reduces the cell viability by 50%) [1]: >100 µM
- IC50 (rat ACC2): 0.82 µM
- IC50 (rat ACC1): 0.76 µM

SMILES: Cc1ccccc1-c1cc(C(=O)N2CCC3(CC2)CC(=O)c2ccccc2O3)c2ccccc2n1 [12c, 1'-(2-(o-Tolyl)quinoline-4-carbonyl)spiro[chroman-2,4'-piperidin]-4-one]
- IC50 (rat ACC2): > 1 µM
- IC50 (rat ACC1): > 1 µM

SMILES: O=C1CC2(CCN(C(=O)c3cc(-c4ccccc4Cl)nc4ccccc34)CC2)Oc2ccccc21 [12d, 1'-(2-(2-Chlorophenyl)quinoline-4-carbonyl)spiro[chroman-2,4'-piperidin]-4-one]
- IC50 (rat ACC2): 0.94 µM
- IC50 (rat ACC1): > 1 µM

SMILES: O=C1CC2(CCN(C(=O)c3cc(-c4ccc(Cl)cc4)nc4ccccc34)CC2)Oc2ccccc21 [12e, 1'-(2-(4-Chlorophenyl)quinoline-4-carbonyl)spiro[chroman-2,4'-piperidin]-4-one]
- IC50 (rat ACC2): > 1 µM
- IC50 (rat ACC1): > 1 µM

SMILES: O=C1CC2(CCN(C(=O)c3cc(Cl)nc4ccccc34)CC2)Oc2ccccc21 [12f, 1'-(2-Chloroquinoline-4-carbonyl)spiro[chroman-2,4'-piperidin]-4-one]
- IC50 (rat ACC2): > 1 µM
- IC50 (rat ACC1): > 1 µM

SMILES: O=C1CC2(CCN(C(=O)c3cc(N4CCOCC4)nc4ccccc34)CC2)Oc2ccccc21 [12g, 1'-(2-Morpholinoquinoline-4-carbonyl)spiro[chroman-2,4'-piperidin]-4-one]
- IC50 (rat ACC2): > 1 µM
- IC50 (rat ACC1): > 1 µM
- melting point: 138 to 140 °C

SMILES: O=C(c1c2ccccc2cc2ccccc12)N1CCC(N2CCC[C@@H](C(=O)N3CCOCC3)C2)CC1 [CP-640186, reference compound]
- TC50 (concentration which reduces the cell viability by 50%) [1]: >100 µM
- IC50 (rat ACC2): 0.185 µM
- IC50 (ACC2): ~0.05 µM
- IC50 (ACC1): ~0.05 µM
